From the NIST ThermoML archive (doi:10.1021/acs.jced.8b00326)
Numbers after ± are expanded uncertainties.

Test: mn = molality of the nth substance listed, in mol/kg
Conditions: 100 kPa, Liquid, Alternating current cell with electrodes

Question: With `CCCCCCCCCCCCCCCC[n+]1ccccc1.[Cl-]` [cetylpyridinium chloride] + O as the compound, how does the electrical conductivity (293.15 K, m1 = 0.0002) read?
Answer: The electrical conductivity was 0.00277 ± 0.0012 S/m.

Question: And the electrical conductivity (293.15 K, m1 = 0.0004)?
Answer: Its electrical conductivity is 0.00503 ± 0.0012 S/m.

Question: And the electrical conductivity (293.15 K, m1 = 0.0006)?
Answer: Its electrical conductivity is 0.0073 ± 0.0012 S/m.

Question: And the electrical conductivity (293.15 K, m1 = 0.0008)?
Answer: The electrical conductivity was 0.00906 ± 0.0011 S/m.

Question: And the electrical conductivity (293.15 K, m1 = 0.001)?
Answer: Its electrical conductivity is 0.0102 ± 0.001 S/m.

Question: What about the electrical conductivity (293.15 K, m1 = 0.0012) of the same compound?
Answer: Its electrical conductivity is 0.0112 ± 0.001 S/m.

Question: What about the electrical conductivity (293.15 K, m1 = 0.0014) of the same compound?
Answer: The electrical conductivity was 0.012 ± 0.001 S/m.

Question: And the electrical conductivity (293.15 K, m1 = 0.0016)?
Answer: Its electrical conductivity is 0.0128 ± 0.001 S/m.

Question: And the electrical conductivity (293.15 K, m1 = 0.0018)?
Answer: Its electrical conductivity is 0.0138 ± 0.001 S/m.

Question: And the electrical conductivity (293.15 K, m1 = 0.002)?
Answer: The electrical conductivity was 0.0145 ± 0.001 S/m.

Question: What about the electrical conductivity (298.15 K, m1 = 0.0002) of the same compound?
Answer: The electrical conductivity was 0.00283 ± 0.0013 S/m.

Question: And the electrical conductivity (298.15 K, m1 = 0.0004)?
Answer: The electrical conductivity was 0.00513 ± 0.0013 S/m.

Question: What about the electrical conductivity (298.15 K, m1 = 0.0006) of the same compound?
Answer: The electrical conductivity was 0.00755 ± 0.0013 S/m.

Question: And the electrical conductivity (298.15 K, m1 = 0.0008)?
Answer: Its electrical conductivity is 0.00982 ± 0.0011 S/m.

Question: What about the electrical conductivity (298.15 K, m1 = 0.001) of the same compound?
Answer: Its electrical conductivity is 0.0109 ± 0.001 S/m.

Question: What about the electrical conductivity (298.15 K, m1 = 0.0012) of the same compound?
Answer: The electrical conductivity was 0.0118 ± 0.001 S/m.

Question: And the electrical conductivity (298.15 K, m1 = 0.0014)?
Answer: Its electrical conductivity is 0.0128 ± 0.001 S/m.

Question: And the electrical conductivity (298.15 K, m1 = 0.0016)?
Answer: Its electrical conductivity is 0.0139 ± 0.001 S/m.

Question: And the electrical conductivity (298.15 K, m1 = 0.0018)?
Answer: The electrical conductivity was 0.0149 ± 0.001 S/m.

Question: And the electrical conductivity (298.15 K, m1 = 0.002)?
Answer: Its electrical conductivity is 0.0158 ± 0.0011 S/m.

Question: And the electrical conductivity (303.15 K, m1 = 0.0002)?
Answer: Its electrical conductivity is 0.00302 ± 0.0013 S/m.

Question: What about the electrical conductivity (303.15 K, m1 = 0.0004) of the same compound?
Answer: Its electrical conductivity is 0.00574 ± 0.0013 S/m.

Question: And the electrical conductivity (303.15 K, m1 = 0.0006)?
Answer: Its electrical conductivity is 0.00831 ± 0.0013 S/m.

Question: And the electrical conductivity (303.15 K, m1 = 0.0008)?
Answer: The electrical conductivity was 0.011 ± 0.0013 S/m.

Question: And the electrical conductivity (303.15 K, m1 = 0.001)?
Answer: Its electrical conductivity is 0.0134 ± 0.0012 S/m.

Question: And the electrical conductivity (303.15 K, m1 = 0.0012)?
Answer: The electrical conductivity was 0.0148 ± 0.0011 S/m.

Question: What about the electrical conductivity (303.15 K, m1 = 0.0014) of the same compound?
Answer: Its electrical conductivity is 0.016 ± 0.0011 S/m.

Question: And the electrical conductivity (303.15 K, m1 = 0.0016)?
Answer: The electrical conductivity was 0.0172 ± 0.0011 S/m.

Question: What about the electrical conductivity (303.15 K, m1 = 0.0018) of the same compound?
Answer: Its electrical conductivity is 0.0184 ± 0.0011 S/m.

Question: What about the electrical conductivity (303.15 K, m1 = 0.002) of the same compound?
Answer: The electrical conductivity was 0.0194 ± 0.001 S/m.

Question: What about the electrical conductivity (308.15 K, m1 = 0.0002) of the same compound?
Answer: The electrical conductivity was 0.00337 ± 0.0014 S/m.

Question: What about the electrical conductivity (308.15 K, m1 = 0.0004) of the same compound?
Answer: The electrical conductivity was 0.00645 ± 0.0014 S/m.

Question: And the electrical conductivity (308.15 K, m1 = 0.0006)?
Answer: The electrical conductivity was 0.00954 ± 0.0014 S/m.

Question: And the electrical conductivity (308.15 K, m1 = 0.0008)?
Answer: Its electrical conductivity is 0.0126 ± 0.0014 S/m.

Question: And the electrical conductivity (308.15 K, m1 = 0.001)?
Answer: Its electrical conductivity is 0.0155 ± 0.0012 S/m.

Question: And the electrical conductivity (308.15 K, m1 = 0.0012)?
Answer: The electrical conductivity was 0.017 ± 0.0011 S/m.

Question: What about the electrical conductivity (308.15 K, m1 = 0.0014) of the same compound?
Answer: Its electrical conductivity is 0.0183 ± 0.0011 S/m.

Question: What about the electrical conductivity (308.15 K, m1 = 0.0016) of the same compound?
Answer: The electrical conductivity was 0.0196 ± 0.0011 S/m.

Question: What about the electrical conductivity (308.15 K, m1 = 0.0018) of the same compound?
Answer: Its electrical conductivity is 0.021 ± 0.0011 S/m.

Question: And the electrical conductivity (308.15 K, m1 = 0.002)?
Answer: Its electrical conductivity is 0.0223 ± 0.0011 S/m.

Question: Which electrical conductivity (293.15 K, m2 = 0) does the source give for `O` [water] + CCCCCCCCCCCCCCCC[n+]1ccccc1.[Cl-] here?
Answer: Its electrical conductivity is 0.0005 S/m.

Question: What about the electrical conductivity (298.15 K, m2 = 0) of the same compound?
Answer: Its electrical conductivity is 0.00053 S/m.

Question: And the electrical conductivity (303.15 K, m2 = 0)?
Answer: The electrical conductivity was 0.00057 S/m.

Question: And the electrical conductivity (308.15 K, m2 = 0)?
Answer: Its electrical conductivity is 0.00058 S/m.
